One assay relates to albino rats. The assay can be described thus: rat hindpaw thermal escape paradigm (hindpaw withdrawal test for analgesia, acute pain). In kind it is in vivo. Particulars: for analgesic effect of co-administration with acetaminophen compared to either compound given alone: hydroxyazapirone 5 mg/kg + acetaminophen 300 mg/kg, ip; for hindpaw thermal escape response/latency compared to vehicle (saline+PETW): n=5-8 rats per group. The text has this: To assess the thermally evoked paw-withdrawal response, a commercially available device was used. Specifics of device construction and operation have been published previously (Dirig D M, Salami A, Rathbun M L, Ozaki G T, Yaksh T L. Characterization of variables defining hindpaw withdrawal latency evoked by radiant thermal stimuli. J Neurosci Methods. Oct. 3, 1997; 76(2):183-91). This device is comprised of a glass surface on which the rats were placed individually in Plexiglas cubicles (9×22×25 cm). The surface is maintained at 30° C. by a feedback-controlled, under-glass, forced-air heating system. The thermal nociceptive stimulus originates from a projection bulb below the glass that can be manipulated in a two-dimensional axis on ball bearing slides. This apparatus allows the stimulus to be delivered separately to each hind paw with the aid of an angled mirror mounted on the stimulus source. A timer is actuated with the light source, and escape latency is defined as the time between stimulus onset and the display of a brisk paw withdrawal (detected by photodiode motion sensors that stops the timer and terminates the stimulus; cut-off time for a non-response is 20 sec which triggers automatic termination of the stimulus). In the present study, animals are placed in test boxes for 30 min acclimation and then baseline escape latency is assessed separately for each hindpaw (left and right) at −15 min. All drugs are delivered at 0 min by the intraperitoneal (i.p.) route in a volume of 3 ml/kg. The vehicle for 6-hydroxybuspirone was 0.9% sodium chloride (Saline). For 3-hydroxygepirone the vehicle was deionized H2O plus a few drops of hydrochloric acid. For acetaminophen (Sigma, A7085) the vehicle was 40% polyethylene glycol 400 (PEG-400), 10% EtOH, 15% Tween 80, and 35% deionized H2O (PETW). Acetaminophen was disolved sequentially in two parts: 1) first into a solution of 80% PEG 400+20% EtOH, and 2) then slowly added to it was an equal volume of 30% Tween 80+70% deionized H2O (sonicated as needed). Each animal received two injections at time zero. Specifically, animals were tested in one of the following 6 treatment conditions (abbreviations used in figures are shown under “Key” below):
Following drug administration, thermal escape latencies are measured at 15, 30, 60, 90 and 120 min (mean of both paws is used for statistical analysis).

For the next assay, the system named is mouse. As to the kind of experiment: mouse hot plate test (procedure of Eddy, et al.). It counts as in vivo. To be noted: 6-hydroxybuspirone to acetaminophen weight ratios of 1:3, 1:10 and 1:30. A general note: Hot-plate and tail-flick tests time the reaction to a heat stimulus.
The mark [1] stands for this setting: hydroxyazapirone alone, 5 mg/kg ip.
The mark [2] stands for this setting: acetaminophen alone, 300 mg/kg ip.

For the molecule `CC1(C)CC(=O)N(CCCCN2CCN(c3ncccn3)CC2)C(=O)C1O` (centres unmarked) [3-hydroxygepirone, 4,4-Dimethyl-3-hydroxy-1-[4-[4-(2-pyrimidinyl)-1-piperazinyl]butyl]-2,6-piperidinedione], in the assay with albino rats (3-hydroxygepirone alone, 5 mg/kg ip), the “time of peak analgesic effect post injection” value stood at 120 min. In the assay with albino rats, the “analgesic effect of co-administration with acetaminophen compared to either compound given alone” value was “analgesic enhancing effect”. The “hindpaw thermal escape response/latency compared to vehicle (saline+PETW)” value in the assay on albino rats (setting [1]) was “elevated significantly above vehicle”.
`O=C1CC2(CCCC2)C(O)C(=O)N1CCCCN1CCN(c2ncccn2)CC1` (centres unmarked) [6-hydroxybuspirone, 6-Hydroxy-8-[4-[4-(2-pyrimidinyl)-piperazinyl]-butyl]-8-azaspiro[4.5]-7,9-dione]: the “analgesic effect of co-administration with acetaminophen compared to either compound given alone” value with albino rats is given as “analgesic enhancing effect”. Also, the “hindpaw thermal escape response/latency compared to vehicle (saline+PETW)” value with albino rats (setting [1]) is recorded as “elevated significantly above vehicle”. Further, in the assay on mouse, the “potentiation of acetaminophen in hot plate test” value is on record as “potentiation of acetaminophen”.
Take `CC(=O)Nc1ccc(O)cc1` [acetaminophen, reference compound]: in the assay on albino rats (setting [2]), the “time of peak analgesic effect post injection” value is given as 120 min and the “hindpaw thermal escape response/latency compared to vehicle (saline+PETW)” value is reported as “elevated significantly above vehicle”.

Source of the values: patent US6593331B2, “Method for treatment of pain” (Laboratories UPSA, priority 2001, dated 2003).
